Laboratory results published in PubChem BioAssay AID1633 (PCMD, 2009).

Molecular target: Procathepsin L (Homo sapiens) (UniProt P07711)
Assay: CTSL inhibition IC50, probe compound – biochemical, dose response (AID 1633)
Conditions: purified cathepsin L, fluorogenic substrate, enzyme inhibition

Chain of Procathepsin L (Homo sapiens) (P07711 114-288 limits assumed): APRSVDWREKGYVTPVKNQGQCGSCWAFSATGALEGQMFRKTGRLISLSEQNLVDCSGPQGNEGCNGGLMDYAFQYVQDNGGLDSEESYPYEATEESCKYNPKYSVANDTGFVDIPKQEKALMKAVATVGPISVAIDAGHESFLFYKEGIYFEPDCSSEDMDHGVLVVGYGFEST
Chain of Procathepsin L (Homo sapiens) (P07711 292-333 limits assumed): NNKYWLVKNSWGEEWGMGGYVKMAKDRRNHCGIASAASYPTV

IC50: 201 nM
SMILES: CCc1ccccc1NC(=O)CSC(=O)NNC(=O)[C@H](Cc1c[nH]c2ccccc12)NC(=O)OC(C)(C)C
